Source: patent publication US10149835B2, “Isoxazole derivatives as FXR agonists and methods of use thereof” (Enanta Pharmaceuticals, Inc., priority 2016, dated 2018)

Target: human FXR (NR1H4) (Homo sapiens (Human), UniProt Q96RI1)
Assay: Human FXR (NR1H4) Assay (Gal4 promoter driven luciferase reporter, Indigo Bioscience kit)
Assay type: cell-based
Conditions: CHO reporter cells expressing human NR1H4; for Efficacy (%): normalized to CDCA set as 100%; for EC50: 22 hours incubation, potency ranges
Protocol: To a solution of compound (1) (211 mg, 0.37 mmol) in toluene (3 ml) was added dropwise triethylamine (0.10 ml, 0.74 mmol) and diphenyl phosphorazidate (0.087 ml, 0.40 mmol). The mixture was stirred at 23° C. for 1 h, at 85° C. for 3.5 h, and cooled to 23° C. A solution of N,N-dimethylsulfamide (68 mg, 0.55 mmol) in THF (0.5 mL) and DBU (83 μl, 0.55 mmol) was added. The mixture was stirred at 23° C. for 16 h, quenched with 1 M HCl, and extracted with EtOAc (2×). The combined organic layers were washed with brine and concentrated in vacuo. The residue was purified by chromatography on silica gel column eluting with hexane/acetone (100/0 to 70/30, 10 min) to provide Example 7. Assays Human FXR (NR1H4) Assay
Determination of a ligand mediated Gal4 promoter driven transactivation to quantify ligand binding mediated activation of FXR. FXR Reporter Assay kit purchased from Indigo Bioscience (Catalogue number: IB00601) to determine the potency and efficacy of compound developed by Enanta that can induce FXR activation. The principle application of this reporter assay system is to quantify functional activity of human FXR. The assay utilizes non-human mammalian cells, CHO (Chinese hamster ovary) cells engineered to express human NR1H4 protein (referred to as FXR). Reporter cells also incorporate the cDNA encoding beetle luciferase which catalyzes the substrates and yields photon emission. Luminescence intensity of the reaction is quantified using a plate-reading luminometer, Envision. Reporter Cells include the luciferase reporter gene functionally linked to an FXR responsive promoter. Thus, quantifying changes in luciferase expression in the treated reporter cells provides a sensitive surrogate measure of the changes in FXR activity. […] The assay is according to the manufacturer's instructions. In brief, the assay was performed in white, 96 well plates using final volume of 100 μl containing cells with different doses of compounds. Retrieve Reporter Cells from −80° C. storage. Perform a rapid thaw of the frozen cells by transferring a 10 ml volume of 37° C. cell recovery medium into the tube of frozen cells. Recap the tube of Reporter Cells and immediately place it in a 37° C. water bath for 5-10 minutes. Retrieve the tube of Reporter Cell Suspension from the water bath. Sanitize the outside surface of the tube with a 70% alcohol swab, and then transfer it into the cell culture hood. Dispense 90 μl of cell suspension into each well of the 96-well Assay Plate. Transfer the plate into 37° C. incubator, allowing the cells adherent to the bottom of the well. Dilute compounds in Dilution Plate (DP), and administrate to cells at Assay Plate (AP). DMSO content of the samples was kept at 0.2%. Cells were incubated for additional 22 hours before luciferase activities were measured. Thirty minutes before intending to quantify FXR activity, remove Detection Substrate and Detection Buffer from the refrigerator and place them in a low-light area so that they may equilibrate to room temperature. Remove the plate's lid and discard all media contents by ejecting it into an appropriate waste container. Gently tap the inverted plate onto a clean absorbent paper towel to remove residual droplets. Cells will remain tightly adhered to well bottoms. Add 100 μl of luciferase detection reagent to each well of the assay plate. Allow the assay plate to rest at room temperature for at least 5 minutes following the addition of LDR. Set the instrument (Envision) to perform a single 5 second “plate shake” prior to reading the first assay well. Read time may be 0.5 second (500 mSec) per well.

Sequence of human FXR (NR1H4) (Q96RI1 whole entry, the tested form may be a part): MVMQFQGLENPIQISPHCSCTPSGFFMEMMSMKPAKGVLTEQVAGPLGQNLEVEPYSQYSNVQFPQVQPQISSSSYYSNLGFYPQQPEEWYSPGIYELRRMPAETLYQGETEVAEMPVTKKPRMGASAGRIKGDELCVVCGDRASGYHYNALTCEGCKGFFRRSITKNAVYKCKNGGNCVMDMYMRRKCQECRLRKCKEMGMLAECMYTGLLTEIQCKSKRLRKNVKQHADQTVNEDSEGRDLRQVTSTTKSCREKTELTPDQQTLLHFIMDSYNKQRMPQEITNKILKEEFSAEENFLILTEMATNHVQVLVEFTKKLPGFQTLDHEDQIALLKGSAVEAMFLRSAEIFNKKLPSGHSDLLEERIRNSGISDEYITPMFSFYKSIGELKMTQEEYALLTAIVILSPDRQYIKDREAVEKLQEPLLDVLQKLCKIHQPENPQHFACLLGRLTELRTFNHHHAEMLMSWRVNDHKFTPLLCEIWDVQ

Row | Compound | Efficacy (%) | EC50 [nM]
1 | CN(C)S(=O)(=O)NC(=O)c1ccc2nc(N3C4CC[C@H]3C[C@H](OCc3c(-c5c(Cl)cccc5Cl)noc3C3CC3)C4)sc2c1 [Example 1] | 204 | 
2 | O=C(NS(=O)(=O)C1CC1)c1ccc2nc(N3C4CC[C@H]3CC(OCc3c(-c5c(Cl)cccc5Cl)noc3C3CC3)C4)sc2c1 (some centres unmarked) [Example 2] | 204 | < 100
3 | O=C(NS(=O)(=O)C1CC1)c1ccc(N2C3CC[C@H]2CC(OCc2c(-c4c(Cl)cccc4Cl)noc2C2CC2)C3)c(F)c1 (some centres unmarked) [Example 6] | 170 | < 100
4 | CC(C)(C)c1ccc(S(=O)(=O)NC(=O)c2ccc3nc(N4C5CC[C@H]4CC(OCc4c(-c6c(Cl)cccc6Cl)noc4C4CC4)C5)sc3c2)cc1 (some centres unmarked) [Example 3] | 226 | < 100
5 | CN(C)S(=O)(=O)NC(=O)c1ccc(N2C3CC[C@H]2CC(OCc2c(-c4c(Cl)cccc4Cl)noc2C2CC2)C3)c(F)c1 (some centres unmarked) [Example 4] | 174 | < 100
6 | CC(C)(C)c1ccc(S(=O)(=O)NC(=O)c2ccc(N3C4CC[C@H]3CC(OCc3c(-c5c(Cl)cccc5Cl)noc3C3CC3)C4)c(F)c2)cc1 (some centres unmarked) [Example 5] | 168 | < 100
